Measured values from patent US3996228A, “Pyrimidinoaminoethyl ergoline derivatives” (Societa' Farmaceutici Italia S.p.A., priority 1973, dated 1976).
Converted amounts (≈) assume the structure as drawn. Read-outs that look alike come from different tables or passages of the source.

Tests used:
[1] = tested on: lethal effects caused by adrenaline; assay: adrenolytic activity in vivo: reduction of the lethal effects caused by adrenaline; conditions: rat, 50% reduction of lethal effects caused by adrenaline
Method: (§1) The compounds of the present invention have a high and prolonged adrenolytic activity and a low toxicity and are therefore useful in therapy. This adrenolytic activity was tested "in vitro" on isolated guinea pig seminal vescicle suspended in physiological solution and "in vivo" on the rat. Table 1 reports the values of concentrations, in γ/ml, which are able to produce a 50% inhibition (IC50) of the spasmogen effect caused by adrenaline and the doses in mg/Kg (ED50) able to reduce by 50% the lethal effects caused by adrenaline after oral (os) and intravenous (i.v.) administration of the compounds in question. Table 1 also reports the LD50 values, both per os and i.v. in rats.

LD50 (acute toxicity) = conditions: rat, in vivo, rats
Method: as §1

[2] = tested on: isolated guinea pig seminal vescicle; assay: adrenolytic activity in vitro: inhibition of the spasmogen effect caused by adrenaline; type: cell-based; conditions: Cavia porcellus, 50% inhibition of spasmogen effect caused by adrenaline
Method: as §1

[3] = analgesic activity, writhing test; type: in vivo
Method: (§2) The analgesic activity was evaluated by means of the hot plate test and the writhing test, the data being given in comparison with morphine and D-propoxyphene.
(§3) In the hot plate and writhing tests, the comparison compounds morphine and D-propoxyphene have been arbitrarily assigned the value of 1.

hypertensive rat = assay: hypotensive activity on the hypertensive rat; type: in vivo; conditions: po, per os, dose which causes a pressure drop of about 30-40 mmHg, read-out: Hypotensive Activity active dose
Method: The hypotensive activity was tested on the hypertensive rat; the reported data being the dose expressed in mg/Kg per os, which causes a pressure drop of about 30-40 mmHg.

[4] = analgesic activity, hot plate test; type: in vivo; conditions: for Analgesic Activity Hot Plate, relative to D-propoxyphene: D-propoxyphene = 1
Method: as §2, §3

[5] = iv, i.v., read-out: Adrenolytic Activity "in vivo" ED50 i.v.
[6] = po, per os, read-out: Adrenolytic Activity "in vivo" ED50 os
[7] = morphine = 1, listed as 1,6-dimethyl-8β-[5-amino-2-pyrimidino-aminoethyl]-10α-ergoline

Row | SMILES | ED50 [1, 5] [mg/kg] | ED50 [1, 6] [mg/kg] | LD50 (LD50 (acute toxicity); iv, i.v., read-out: LD50 i.v.) [mg/kg] | LD50 (LD50 (acute toxicity); po, per os, read-out: LD50 os) [mg/kg] | IC50 [2] [µg/mL] | Analgesic Activity Writhing, relative to D-propoxyphene ([3]; D-propoxyphene = 1) | Analgesic Activity Writhing, relative to morphine ([3]; morphine = 1) | Analgesic Activity Writhing, relative to morphine [3, 7] | ED (30-40 mmHg pressure drop) (hypertensive rat) [mg/kg] | Analgesic Activity Hot Plate, relative to D-propoxyphene [4] | Analgesic Activity Hot Plate, relative to morphine ([4]; morphine = 1) | Analgesic Activity Hot Plate, relative to morphine [4, 7]
1 | Cc1cnc(NCC[C@@H]2C[C@@H]3c4cccc5c4c(cn5C)C[C@H]3N(C)C2)nc1 [1,6-Dimethyl-8β-[5-methyl-2-pyrimidinoaminoethyl]-10α-ergoline] | 0.07 | 0.5 | 19 | 130 | 0.5 (≈ 1.33 µM) |  |  |  |  |  |  | 
2 | CO[C@]12C[C@@H](CCNc3ncc([N+](=O)[O-])cn3)CN(C)[C@@H]1Cc1cn(C)c3cccc2c13 [1,6-Dimethyl-8β-[5-nitro-2-pyrimidinoaminoethyl]-10α-methoxyergoline] | 0.25 | 0.42 |  | 150 | 0.5 (≈ 1.15 µM) |  |  |  |  |  |  | 
3 | CN1C[C@H](CCNc2ncccn2)C[C@@H]2c3cccc4c3c(cn4C)C[C@H]21 [1,6-dimethyl-8β-[2-pyrimidinoaminoethyl]-10α-ergoline] | 0.2 | 0.1 | 18 | 100 | 0.001 (≈ 0.00277 µM) |  |  |  |  |  |  | 
4 | CN1C[C@H](CCNc2ncc(N)cn2)C[C@@H]2c3cccc4c3c(cn4C)C[C@H]21 [1,6-dimethyl-8β-[5-amino-2-pyrimidinoaminoethyl]-10α-ergoline] |  |  |  |  |  | 10 | 1 | same activity as morphine | 10 | 5 | 1 | same activity as morphine
5 | CO[C@]12C[C@@H](CCNc3ncc(Br)cn3)CN(C)[C@@H]1Cc1cn(C)c3cccc2c13 [1,6-dimethyl-8β-[5-bromo-2-pyrimidinoaminoethyl]-10α-methoxyergoline] | 0.65 | > 1 |  | 200 | 0.01 (≈ 0.0213 µM) |  |  |  |  |  |  | 
6 | COc1cnc(NCC[C@@H]2C[C@@H]3c4cccc5c4c(cn5C)C[C@H]3N(C)C2)nc1 [1,6-dimethyl-8β-[5-methoxy-2-pyrimidinoaminoethyl]-10α-ergoline] |  |  |  |  |  |  |  |  | 10 | 2 | 0.5 | 
